For assay [1], the target named is 5'-AMP-activated protein kinase catalytic subunit alpha-1 (Homo sapiens) (UniProt Q13131). Kind of assay: Binding affinity to wild-type human partial length AMPK alpha1 (M1 to E306 residues) expressed in bacterial expression system assessed as residual binding level at 1 uM by Kinomescan method relative to control.
The target of assay [2] is Bone morphogenetic protein receptor type-1A (Homo sapiens) (UniProt P36894). As to the kind of experiment: Binding affinity to wild-type human partial length BMPR1A (Q214 to I532 residues) expressed in bacterial expression system assessed as residual binding level at 1 uM by Kinomescan method relative to control.
Assay [3] deals with Bone morphogenetic protein receptor type-2 (Homo sapiens) (UniProt Q13873). Kind of assay: Binding affinity to wild-type human partial length BMPR2 (R179 to Q526 residues) expressed in mammalian expression system assessed as residual binding level at 1 uM by Kinomescan method relative to control.
Assay [4] relates to Serine/threonine-protein kinase B-raf (Homo sapiens), P15056 [V600E]. As to the kind of experiment: Binding affinity to human partial length BRAF V600E mutant (S429 to E741 residues) expressed in mammalian expression system assessed as residual binding level at 1 uM by Kinomescan method relative to control.
Assay [5] concerns the target Dual specificity tyrosine-phosphorylation-regulated kinase 2 (Homo sapiens) (UniProt Q92630). As to the kind of experiment: Binding affinity to wild-type human full length DYRK2 (M1 to S528 residues) expressed in mammalian expression system assessed as residual binding level at 1 uM by Kinomescan method relative to control.
Assay [6] has as its target Ephrin type-A receptor 4 (Homo sapiens) (UniProt P54764). As to the kind of experiment: Binding affinity to wild-type human partial length EPHA4 (T601 to R897 residues) expressed in bacterial expression system assessed as residual binding level at 1 uM by Kinomescan method relative to control.
Assay [7] relates to Receptor-type tyrosine-protein kinase FLT3 (Homo sapiens), P36888 [R834Q]. As to the kind of experiment: Binding affinity to human partial length FLT3 R834Q mutant (V592 to Y969 residues) expressed in mammalian expression system assessed as residual binding level at 1 uM by Kinomescan method relative to control.
Assay [8] concerns eIF-2-alpha kinase GCN2 (Homo sapiens), Q9P2K8 [S808G]. Kind of assay: Binding affinity to wild-type human partial length GCN2 kinase domain 2 (R585 to T1018 residues) S808G mutant expressed in bacterial expression system assessed as residual binding level at 1 uM by Kinomescan method relative to control.
In assay [9] the target is Rhodopsin kinase GRK1 (Homo sapiens) (UniProt Q15835). Kind of assay: Binding affinity to wild-type human full length GRK1 (M1 to S563 residues) expressed in mammalian expression system assessed as residual binding level at 1 uM by Kinomescan method relative to control.
Assay [10] has as its system Mast/stem cell growth factor receptor Kit (Homo sapiens), P10721 [V559D]. As to the kind of experiment: Binding affinity to human partial length KIT V559D mutant (Y545 to D952 residues) expressed in bacterial expression system assessed as residual binding level at 1 uM by Kinomescan method relative to control.
In assay [11] the target is MAP kinase-interacting serine/threonine-protein kinase 2 (Homo sapiens) (UniProt Q9HBH9). Kind of assay: Binding affinity to wild-type human partial length MKNK2 (G63 to S388 residues) expressed in mammalian expression system assessed as residual binding level at 1 uM by Kinomescan method relative to control.
In assay [12] the target is Mitogen-activated protein kinase 12 (Homo sapiens) (UniProt P53778). As to the kind of experiment: Binding affinity to wild-type human full length p38-gamma (M1 to L367 residues) expressed in mammalian expression system assessed as residual binding level at 1 uM by Kinomescan method relative to control.
The target of assay [13] is Serine/threonine-protein kinase PAK 5 (Homo sapiens) (UniProt Q9P286). Kind of assay: Binding affinity to wild-type human partial length PAK7 (Y400 to H719 residues) expressed in bacterial expression system assessed as residual binding level at 1 uM by Kinomescan method relative to control.
Assay [14] deals with Phosphatidylinositol 4,5-bisphosphate 3-kinase catalytic subunit alpha isoform (Homo sapiens), P42336 [I800L]. Kind of assay: Binding affinity to human partial length PIK3CA I800L mutant (R108 to N1068 residues) expressed in mammalian expression system assessed as residual binding level at 1 uM by Kinomescan method relative to control.
Assay [15] has as its target cAMP-dependent protein kinase catalytic subunit beta (Homo sapiens) (UniProt P22694). As to the kind of experiment: Binding affinity to wild-type human full length PKAC-beta (M1 to F351 residues) expressed in bacterial expression system assessed as residual binding level at 1 uM by Kinomescan method relative to control.
Assay [16] deals with Serine/threonine-protein kinase PLK2 (Homo sapiens) (UniProt Q9NYY3). As to the kind of experiment: Binding affinity to wild-type human partial length PLK2 (H58 to F354 residues) expressed in mammalian expression system assessed as residual binding level at 1 uM by Kinomescan method relative to control.
Assay [17] deals with Serine/threonine-protein kinase D3 (Homo sapiens) (UniProt O94806). Kind of assay: Binding affinity to wild-type human partial length PRKD3 (S543 to E863 residues) expressed in bacterial expression system assessed as residual binding level at 1 uM by Kinomescan method relative to control.
Assay [18] concerns the target Ribosomal protein S6 kinase alpha-5 (Homo sapiens) (UniProt O75582). Kind of assay: Binding affinity to wild-type human partial length N-terminal RPS6KA5 kinase domain 1 expressed in bacterial expression system assessed as residual binding level at 1 uM by Kinomescan method relative to control.
The target is the same in assay [19]. Kind of assay: Binding affinity to wild-type human partial length C-terminal RPS6KA5 kinase domain 2 (V390 to T718 residues) expressed in bacterial expression system assessed as residual binding level at 1 uM by Kinomescan method relative to control.
Assay [20] deals with Proto-oncogene tyrosine-protein kinase Src (Homo sapiens) (UniProt P12931). As to the kind of experiment: Binding affinity to wild-type human partial length SRC (L240 to L536 residues) expressed in bacterial expression system assessed as residual binding level at 1 uM by Kinomescan method relative to control.
In assay [21] the target is Tyrosine-protein kinase SYK (Homo sapiens) (UniProt P43405). Kind of assay: Binding affinity to wild-type human partial length SYK (D354 to N635 residues) expressed in bacterial expression system assessed as residual binding level at 1 uM by Kinomescan method relative to control.
Assay [22] concerns the target High affinity nerve growth factor receptor (Homo sapiens) (UniProt P04629). Kind of assay: Binding affinity to wild-type human partial length TRKA (G475 to G790 residues) expressed in mammalian expression system assessed as residual binding level at 1 uM by Kinomescan method relative to control.
The target of assay [23] is Transient receptor potential cation channel subfamily M member 6 (Homo sapiens) (UniProt Q9BX84). As to the kind of experiment: Binding affinity to wild-type human partial length TRPM6 (Q1723 to I1998 residues) expressed in mammalian expression system assessed as residual binding level at 1 uM by Kinomescan method relative to control.
Assay [24] has as its target Serine/threonine-protein kinase ULK1 (Homo sapiens) (UniProt O75385). As to the kind of experiment: Binding affinity to wild-type human partial length ULK1 (M1 to T309 residues) expressed in mammalian expression system assessed as residual binding level at 1 uM by Kinomescan method relative to control.

Each structure is given as a SMILES string.

Chain of Ribosomal protein S6 kinase alpha-5 (Homo sapiens) (O75582 whole entry, looked up, the tested form may be a part): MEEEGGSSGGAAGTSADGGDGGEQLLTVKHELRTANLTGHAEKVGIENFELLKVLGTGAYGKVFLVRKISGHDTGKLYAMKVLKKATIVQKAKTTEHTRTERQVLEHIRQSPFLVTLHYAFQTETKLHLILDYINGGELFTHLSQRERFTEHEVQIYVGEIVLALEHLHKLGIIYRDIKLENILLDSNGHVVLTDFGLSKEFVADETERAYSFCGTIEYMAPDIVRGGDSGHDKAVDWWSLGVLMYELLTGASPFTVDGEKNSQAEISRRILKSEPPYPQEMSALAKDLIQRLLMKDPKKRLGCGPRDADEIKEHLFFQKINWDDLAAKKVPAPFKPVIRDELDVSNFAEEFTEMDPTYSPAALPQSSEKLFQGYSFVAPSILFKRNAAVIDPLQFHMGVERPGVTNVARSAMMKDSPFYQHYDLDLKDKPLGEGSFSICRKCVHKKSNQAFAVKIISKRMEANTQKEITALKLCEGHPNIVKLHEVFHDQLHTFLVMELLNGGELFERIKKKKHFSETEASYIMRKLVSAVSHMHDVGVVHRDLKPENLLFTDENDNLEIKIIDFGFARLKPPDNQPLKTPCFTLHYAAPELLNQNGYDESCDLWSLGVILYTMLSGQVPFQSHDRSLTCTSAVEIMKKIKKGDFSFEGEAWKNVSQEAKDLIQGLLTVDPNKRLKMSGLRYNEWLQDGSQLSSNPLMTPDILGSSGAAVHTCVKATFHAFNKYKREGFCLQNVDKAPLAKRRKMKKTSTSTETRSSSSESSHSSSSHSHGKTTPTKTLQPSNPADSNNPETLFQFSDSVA
Chain of eIF-2-alpha kinase GCN2 (Homo sapiens), Q9P2K8 [S808G] (Q9P2K8 whole entry S808G, the tested form may be a part): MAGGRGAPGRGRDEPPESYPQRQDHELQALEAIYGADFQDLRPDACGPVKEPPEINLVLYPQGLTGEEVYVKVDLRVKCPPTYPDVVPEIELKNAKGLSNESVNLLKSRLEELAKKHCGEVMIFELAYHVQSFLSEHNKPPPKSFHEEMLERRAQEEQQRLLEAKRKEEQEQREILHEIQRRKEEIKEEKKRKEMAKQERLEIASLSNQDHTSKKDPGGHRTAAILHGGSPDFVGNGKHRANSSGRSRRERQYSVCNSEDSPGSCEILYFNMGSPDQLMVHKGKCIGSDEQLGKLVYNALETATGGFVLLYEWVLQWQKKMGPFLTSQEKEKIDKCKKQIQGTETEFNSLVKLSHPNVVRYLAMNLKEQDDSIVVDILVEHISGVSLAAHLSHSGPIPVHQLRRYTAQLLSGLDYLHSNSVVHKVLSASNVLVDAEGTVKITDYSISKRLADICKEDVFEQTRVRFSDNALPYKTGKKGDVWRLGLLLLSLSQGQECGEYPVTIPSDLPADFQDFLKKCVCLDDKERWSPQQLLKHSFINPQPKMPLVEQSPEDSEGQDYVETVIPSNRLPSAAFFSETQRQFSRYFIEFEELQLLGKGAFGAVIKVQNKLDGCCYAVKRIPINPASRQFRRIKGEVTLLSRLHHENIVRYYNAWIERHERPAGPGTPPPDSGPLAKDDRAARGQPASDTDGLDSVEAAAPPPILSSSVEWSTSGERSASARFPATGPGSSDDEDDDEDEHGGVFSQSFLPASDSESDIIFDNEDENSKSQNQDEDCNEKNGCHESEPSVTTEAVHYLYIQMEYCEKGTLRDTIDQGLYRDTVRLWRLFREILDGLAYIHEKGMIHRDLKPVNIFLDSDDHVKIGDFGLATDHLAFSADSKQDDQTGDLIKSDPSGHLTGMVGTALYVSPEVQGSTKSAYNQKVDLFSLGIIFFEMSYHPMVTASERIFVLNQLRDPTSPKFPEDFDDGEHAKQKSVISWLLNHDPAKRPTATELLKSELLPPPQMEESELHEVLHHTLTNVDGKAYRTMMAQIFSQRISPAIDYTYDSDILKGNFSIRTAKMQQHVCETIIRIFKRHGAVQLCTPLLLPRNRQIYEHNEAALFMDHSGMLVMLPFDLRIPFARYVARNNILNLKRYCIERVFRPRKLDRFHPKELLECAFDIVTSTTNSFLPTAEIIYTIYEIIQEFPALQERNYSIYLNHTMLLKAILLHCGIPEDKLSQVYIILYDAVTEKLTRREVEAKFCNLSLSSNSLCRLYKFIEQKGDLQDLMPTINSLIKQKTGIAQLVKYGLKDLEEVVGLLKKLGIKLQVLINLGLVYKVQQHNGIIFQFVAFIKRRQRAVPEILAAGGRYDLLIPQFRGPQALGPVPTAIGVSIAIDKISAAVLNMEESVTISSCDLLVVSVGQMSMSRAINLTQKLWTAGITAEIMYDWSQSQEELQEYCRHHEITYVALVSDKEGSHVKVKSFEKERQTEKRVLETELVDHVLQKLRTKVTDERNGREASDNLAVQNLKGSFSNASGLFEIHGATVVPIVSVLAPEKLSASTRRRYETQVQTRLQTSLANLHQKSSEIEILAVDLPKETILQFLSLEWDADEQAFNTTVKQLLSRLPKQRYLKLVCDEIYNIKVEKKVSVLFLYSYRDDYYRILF
Chain of 5'-AMP-activated protein kinase catalytic subunit alpha-1 (Homo sapiens) (Q13131 whole entry, looked up, the tested form may be a part): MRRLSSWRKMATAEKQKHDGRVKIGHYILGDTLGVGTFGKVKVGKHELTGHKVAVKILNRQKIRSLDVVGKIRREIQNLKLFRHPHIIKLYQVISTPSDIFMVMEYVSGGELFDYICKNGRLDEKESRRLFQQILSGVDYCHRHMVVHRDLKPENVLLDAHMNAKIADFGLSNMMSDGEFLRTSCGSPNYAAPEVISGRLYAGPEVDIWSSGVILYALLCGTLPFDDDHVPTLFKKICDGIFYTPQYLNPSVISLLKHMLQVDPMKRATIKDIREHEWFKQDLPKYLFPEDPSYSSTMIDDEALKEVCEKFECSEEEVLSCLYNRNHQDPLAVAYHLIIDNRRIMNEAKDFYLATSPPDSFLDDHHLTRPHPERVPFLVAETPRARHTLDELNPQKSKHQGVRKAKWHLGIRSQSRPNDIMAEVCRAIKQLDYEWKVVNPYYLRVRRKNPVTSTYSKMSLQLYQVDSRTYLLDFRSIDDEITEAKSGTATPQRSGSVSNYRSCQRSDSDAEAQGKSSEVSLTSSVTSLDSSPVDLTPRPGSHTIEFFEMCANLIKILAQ
Chain of MAP kinase-interacting serine/threonine-protein kinase 2 (Homo sapiens) (Q9HBH9 whole entry, looked up, the tested form may be a part): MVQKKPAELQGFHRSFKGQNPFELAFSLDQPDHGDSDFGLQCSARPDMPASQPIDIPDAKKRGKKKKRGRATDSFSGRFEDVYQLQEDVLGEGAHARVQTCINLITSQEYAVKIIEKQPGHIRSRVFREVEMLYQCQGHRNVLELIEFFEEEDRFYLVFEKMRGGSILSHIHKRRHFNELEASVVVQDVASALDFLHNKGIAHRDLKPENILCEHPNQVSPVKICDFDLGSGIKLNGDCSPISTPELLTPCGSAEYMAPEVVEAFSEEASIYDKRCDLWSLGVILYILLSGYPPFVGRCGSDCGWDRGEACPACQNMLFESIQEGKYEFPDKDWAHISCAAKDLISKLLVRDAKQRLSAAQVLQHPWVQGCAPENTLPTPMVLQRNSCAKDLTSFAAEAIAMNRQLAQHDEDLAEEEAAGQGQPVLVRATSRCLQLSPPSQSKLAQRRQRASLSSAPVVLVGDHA
Chain of Bone morphogenetic protein receptor type-1A (Homo sapiens) (P36894 whole entry, the tested form may be a part): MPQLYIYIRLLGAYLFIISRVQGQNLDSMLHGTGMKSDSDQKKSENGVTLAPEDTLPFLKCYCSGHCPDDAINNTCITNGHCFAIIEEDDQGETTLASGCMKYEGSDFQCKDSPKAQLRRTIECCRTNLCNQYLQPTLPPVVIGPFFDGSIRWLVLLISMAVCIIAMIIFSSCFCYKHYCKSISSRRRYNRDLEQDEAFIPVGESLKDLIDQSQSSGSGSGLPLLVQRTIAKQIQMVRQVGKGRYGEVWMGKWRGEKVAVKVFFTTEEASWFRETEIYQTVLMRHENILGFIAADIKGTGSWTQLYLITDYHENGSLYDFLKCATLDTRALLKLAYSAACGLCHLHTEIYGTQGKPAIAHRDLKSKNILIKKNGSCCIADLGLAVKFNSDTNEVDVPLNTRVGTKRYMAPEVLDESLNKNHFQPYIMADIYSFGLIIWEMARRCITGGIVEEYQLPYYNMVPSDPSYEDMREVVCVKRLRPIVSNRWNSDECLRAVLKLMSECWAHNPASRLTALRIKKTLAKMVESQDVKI
Chain of Rhodopsin kinase GRK1 (Homo sapiens) (Q15835 whole entry, the tested form may be a part): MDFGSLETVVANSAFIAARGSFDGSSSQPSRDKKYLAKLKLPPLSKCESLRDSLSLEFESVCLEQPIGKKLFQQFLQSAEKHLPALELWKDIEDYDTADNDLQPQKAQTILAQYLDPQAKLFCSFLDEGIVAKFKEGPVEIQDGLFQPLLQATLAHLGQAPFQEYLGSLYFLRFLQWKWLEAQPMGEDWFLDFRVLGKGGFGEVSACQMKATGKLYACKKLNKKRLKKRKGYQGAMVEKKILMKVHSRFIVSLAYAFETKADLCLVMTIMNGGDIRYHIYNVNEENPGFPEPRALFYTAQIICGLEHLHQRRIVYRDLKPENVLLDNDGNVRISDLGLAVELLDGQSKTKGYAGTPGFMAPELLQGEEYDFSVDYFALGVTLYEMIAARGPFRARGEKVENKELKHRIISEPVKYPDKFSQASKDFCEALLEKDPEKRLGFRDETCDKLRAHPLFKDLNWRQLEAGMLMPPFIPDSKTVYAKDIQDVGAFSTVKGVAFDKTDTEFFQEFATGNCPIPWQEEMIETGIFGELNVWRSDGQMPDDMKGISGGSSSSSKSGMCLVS
Chain of Mitogen-activated protein kinase 12 (Homo sapiens) (P53778 whole entry, the tested form may be a part): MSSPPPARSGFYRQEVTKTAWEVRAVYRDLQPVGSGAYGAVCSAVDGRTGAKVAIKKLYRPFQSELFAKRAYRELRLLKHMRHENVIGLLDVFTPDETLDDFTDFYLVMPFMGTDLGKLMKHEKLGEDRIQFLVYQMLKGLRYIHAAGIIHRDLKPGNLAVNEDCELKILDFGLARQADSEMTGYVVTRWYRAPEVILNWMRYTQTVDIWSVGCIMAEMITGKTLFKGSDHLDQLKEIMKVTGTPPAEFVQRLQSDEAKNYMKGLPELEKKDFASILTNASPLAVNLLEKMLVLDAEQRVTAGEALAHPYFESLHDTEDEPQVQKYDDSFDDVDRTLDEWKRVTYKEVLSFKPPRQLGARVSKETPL

For `CC(C)Nc1sc(C(=O)c2ccc(Cl)s2)c(N)c1C#N`, the Activity stood at 70% in assay [1]; 100% in assay [2]; 99% in assay [3]; 97% in assay [4]; 100% in [5]; 93% in assay [6]. Further, the Activity in assay [7] stood at 99%; in assay [8], 45%; in [9], 100%; in [10], 59%; in [11] it was 100%; in assay [12], 100%. Moreover, the Activity in assay [13] stood at 81%; in assay [14], 73%; in assay [15], 100%; in assay [16] it was 67%; in assay [17], 62%; in assay [18], 92%. For the same compound, the Activity in assay [19] was 77%; in assay [20], 83%; in assay [21] it was 91%; in assay [22], 92%; in assay [23], 92%; in assay [24], 92%.
